Source: patent US20230295234A1, “ANTIMICROBIAL PEPTIDOMIMETICS” (SPEXIS AG, priority 2020, published 2023)
Where two headings read alike, the source gives them in different places. Bridge positions count the residues as written; N and C are the ends. Square brackets hold non-standard residues; d marks the D form. Peptide text beside a SMILES is read from it. * marks the point of attachment. Val(Nα-amidino) = CC(C)[C@H](NC(=N)N)C(=O)*; Pro(4R-NH2) = N[C@H]1CN[C@H](C(=O)O)C1; Pen = CC(C)(S)[C@H](N)C(=O)O; dDab = NCC[C@@H](N)C(=O)O; Dab = NCC[C@H](N)C(=O)O

Key:
[1] = tested on: Escherichia coli ATCC 25922
How it was run: (§1)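 Peptides were made up as 1 mg/mL stocks in sterile water. Colonies in 0.85% saline were set to 0.5 McFarland, then diluted in cation-adjusted Mueller-Hinton II broth to about 5×10^5 CFU/mL. Inoculum was combined with two-fold serial peptide dilutions in water containing 0.002% (final) polysorbate 80.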

[2] = tested on: Escherichia coli MCR-1 Af 45; conditions: Mueller-Hinton broth II, 18-20 hours at 35° C.
How it was run: as §1

[3] = tested on: Klebsiella pneumoniae SSI3010
How it was run: as §1

[4] = tested on: human red blood cells (hRBC); assay: Hemolysis of human red blood cells; assay type: cell-based
How it was run: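 Percent hemolysis is OD540 of peptide-treated supernatant relative to water-lysed cells. Each peptide was tested at 200 μg/mL against 20% (v/v) washed human erythrocytes. Incubation was 1 h at 37 °C, 300 rpm.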

[5] = Mueller-Hinton broth II, 18-20 hours at 35° C.

CC[C@H](C)[C@H](NC(=O)[C@@H](NC(=O)[C@@H]1C[C@@H](O)CN1C(=O)[C@@H](NC(=N)N)C(C)C)[C@@H](C)CC)C(=O)N[C@@H](Cc1ccc(O)cc1)C(=O)N[C@@H]1C(=O)N[C@@H](CC(N)=O)C(=O)N[C@@H](CCCNC(=N)N)C(=O)N[C@@H](CCN)C(=O)N[C@@H]([C@@H](C)O)C(=O)N[C@H](CCN)C(=O)N[C@@H](CCCCN)C(=O)N[C@H](C(=O)N[C@@H](CCN)C(=O)N[C@@H](CCCNC(=N)N)C(=O)N[C@@H](Cc2ccc(O)cc2)C(=O)O)CSSC1(C)C [Example 189] (HELM PEPTIDE1{[CC(C)[C@H](NC(=N)N)C(=O)[*:2]].[Hyp].I.I.Y.[Pen].N.R.[Dab].T.[NCC[C@@H](N[*:1])C(=O)[*:2]].K.C.[Dab].R.Y}$PEPTIDE1,PEPTIDE1,6:R3-13:R3$$$V2.0)
Escherichia coli ATCC 25922 MIC [1, 5]: 0.03125 mg/L
Escherichia coli MCR-1 Af 45 MIC [2]: 0.03125 mg/L
Klebsiella pneumoniae SSI3010 MIC [3, 5]: 0.0625 mg/L
Hemolysis at 0.2 g/L ([4]; 20% hRBC, 1 h at 37° C.): 0%

CC[C@H](C)[C@H](NC(=O)[C@@H]1C[C@@H](N)CN1C(=O)[C@@H](NC(=N)N)C(C)C)C(=O)N[C@H](C(=O)N[C@@H](Cc1ccc(O)cc1)C(=O)N[C@@H]1C(=O)N[C@@H](CC(N)=O)C(=O)N[C@@H](CCCNC(=N)N)C(=O)N[C@@H](CCN)C(=O)N[C@@H]([C@@H](C)O)C(=O)N[C@H](CCN)C(=O)N[C@@H](CCCCN)C(=O)N[C@H](C(=O)N[C@@H](CCN)C(=O)N[C@@H](CCCNC(=N)N)C(=O)N[C@@H](Cc2ccc(O)cc2)C(=O)O)CSSC1(C)C)[C@@H](C)O [Example 190] ({Val(Nα-amidino)}-[Pro(4R-NH2)]ITY[Pen]NR[Dab]T[dDab]KC[Dab]RY-OH; disulfide 5-12)
Escherichia coli ATCC 25922 MIC ([1]; ATCC 25922): 0.0625 mg/L
Escherichia coli MCR-1 Af 45 MIC [2]: 0.0625 mg/L
Klebsiella pneumoniae SSI3010 MIC ([3]; SSI3010): 0.125 mg/L
Hemolysis at 0.2 g/L ([4]; red cells of human, 1 h): 0%

CC[C@H](C)[C@H](NC(=O)[C@@H](NC(=O)[C@@H]1C[C@@H](N)CN1C(=O)[C@@H](NC(=N)N)C(C)C)[C@@H](C)CC)C(=O)N[C@@H](Cc1ccc(O)cc1)C(=O)N[C@@H]1C(=O)N[C@@H](CC(N)=O)C(=O)N[C@@H](CCCNC(=N)N)C(=O)N[C@@H](CCN)C(=O)N[C@@H]([C@@H](C)O)C(=O)N[C@H](CCN)C(=O)N[C@@H](CCCCN)C(=O)N[C@H](C(=O)N[C@@H](CCN)C(=O)N[C@@H](CCCNC(=N)N)C(=O)N[C@@H](Cc2ccc(O)cc2)C(=O)O)CSSC1(C)C [Example 191] ({Val(Nα-amidino)}-[Pro(4R-NH2)]IIY[Pen]NR[Dab]T[dDab]KC[Dab]RY-OH; disulfide 5-12)
Escherichia coli ATCC 25922 MIC ([1]; ATCC 25922): 0.0625 mg/L
Escherichia coli MCR-1 Af 45 MIC [2]: 0.0625 mg/L
Klebsiella pneumoniae SSI3010 MIC ([3]; SSI3010): 0.0625 mg/L
Hemolysis at 0.2 g/L ([4]; red cells of human, 1 h): 0%

CC[C@H](C)[C@H](NC(=O)[C@@H]1C[C@@H](O)CN1C(=O)[C@@H](NC(=N)N)C(C)C)C(=O)N[C@@H](Cc1ccc(O)cc1)C(=O)N[C@@H](Cc1ccc(O)cc1)C(=O)N[C@@H]1C(=O)N[C@@H](CC(N)=O)C(=O)N[C@@H](CCCNC(=N)N)C(=O)N[C@@H](CCN)C(=O)N[C@@H]([C@@H](C)O)C(=O)N[C@H](CCN)C(=O)N[C@@H](CCCCN)C(=O)N[C@H](C(=O)N[C@@H](CCC(N)=O)C(=O)N[C@@H](CCCNC(=N)N)C(=O)N[C@@H](Cc2ccc(O)cc2)C(=O)O)CSSC1(C)C [Example 192] (HELM PEPTIDE1{[CC(C)[C@H](NC(=N)N)C(=O)[*:2]].[Hyp].I.Y.Y.[Pen].N.R.[Dab].T.[NCC[C@@H](N[*:1])C(=O)[*:2]].K.C.Q.R.Y}$PEPTIDE1,PEPTIDE1,6:R3-13:R3$$$V2.0)
Escherichia coli ATCC 25922 MIC ([1]; ATCC 25922): 0.25 mg/L
Escherichia coli MCR-1 Af 45 MIC [2]: 0.25 mg/L
Klebsiella pneumoniae SSI3010 MIC ([3]; SSI3010): 0.25 mg/L
Hemolysis at 0.2 g/L ([4]; red cells of human, 1 h): 0%

CC[C@H](C)[C@H](NC(=O)[C@@H]1C[C@@H](O)CN1C(=O)[C@@H](NC(=N)N)C(C)C)C(=O)N[C@H](C(=O)N[C@@H](Cc1ccc(O)cc1)C(=O)N[C@@H]1C(=O)N[C@@H](CCC(=O)O)C(=O)N[C@@H](CCCNC(=N)N)C(=O)N[C@@H](CCN)C(=O)N[C@@H]([C@@H](C)O)C(=O)N[C@H](CCN)C(=O)N[C@@H](CCCCN)C(=O)N[C@H](C(=O)N[C@@H](CCN)C(=O)N[C@@H](CCCNC(=N)N)C(=O)N[C@@H](Cc2ccc(O)cc2)C(=O)O)CSSC1(C)C)[C@@H](C)O [Example 193] (HELM PEPTIDE1{[CC(C)[C@H](NC(=N)N)C(=O)[*:2]].[Hyp].I.T.Y.[Pen].E.R.[Dab].T.[NCC[C@@H](N[*:1])C(=O)[*:2]].K.C.[Dab].R.Y}$PEPTIDE1,PEPTIDE1,6:R3-13:R3$$$V2.0)
Escherichia coli ATCC 25922 MIC ([1]; ATCC 25922): 0.25 mg/L
Escherichia coli MCR-1 Af 45 MIC [2]: 0.25 mg/L
Klebsiella pneumoniae SSI3010 MIC ([3]; SSI3010): 0.5 mg/L
Hemolysis at 0.2 g/L ([4]; red cells of human, 1 h): 0%

CC[C@H](C)[C@H](NC(=O)[C@@H]1C[C@@H](O)CN1C(=O)[C@@H](NC(=N)N)C(C)C)C(=O)N[C@H](C(=O)N[C@@H](Cc1ccc(O)cc1)C(=O)N[C@@H]1C(=O)N[C@@H](Cc2c[nH]cn2)C(=O)N[C@@H](CCCNC(=N)N)C(=O)N[C@@H](CCN)C(=O)N[C@@H]([C@@H](C)O)C(=O)N[C@H](CCN)C(=O)N[C@@H](CCCCN)C(=O)N[C@H](C(=O)N[C@@H](CCN)C(=O)N[C@@H](CCCNC(=N)N)C(=O)N[C@@H](Cc2ccc(O)cc2)C(=O)O)CSSC1(C)C)[C@@H](C)O [Example 194] (HELM PEPTIDE1{[CC(C)[C@H](NC(=N)N)C(=O)[*:2]].[Hyp].I.T.Y.[Pen].H.R.[Dab].T.[NCC[C@@H](N[*:1])C(=O)[*:2]].K.C.[Dab].R.Y}$PEPTIDE1,PEPTIDE1,6:R3-13:R3$$$V2.0)
Escherichia coli ATCC 25922 MIC ([1]; ATCC 25922): 0.25 mg/L
Escherichia coli MCR-1 Af 45 MIC [2]: 0.125 mg/L
Klebsiella pneumoniae SSI3010 MIC ([3]; SSI3010): 0.25 mg/L
Hemolysis at 0.2 g/L ([4]; red cells of human, 1 h): 0%

CC[C@H](C)[C@H](NC(=O)[C@@H]1C[C@@H](O)CN1C(=O)[C@@H](NC(=N)N)C(C)C)C(=O)N[C@H](C(=O)N[C@@H](Cc1ccc(O)cc1)C(=O)N[C@@H]1C(=O)N[C@@H](CC(N)=O)C(=O)N[C@@H](CCCNC(=N)N)C(=O)N[C@@H](CCN)C(=O)N[C@@H]([C@@H](C)O)C(=O)N[C@H](CCN)C(=O)N[C@@H](CCN)C(=O)N[C@H](C(=O)N[C@@H](CCN)C(=O)N[C@@H](CCCNC(=N)N)C(=O)N[C@@H](Cc2ccc(O)cc2)C(=O)O)CSSC1(C)C)[C@@H](C)O [Example 195] (HELM PEPTIDE1{[CC(C)[C@H](NC(=N)N)C(=O)[*:2]].[Hyp].I.T.Y.[Pen].N.R.[Dab].T.[NCC[C@@H](N[*:1])C(=O)[*:2]].[Dab].C.[Dab].R.Y}$PEPTIDE1,PEPTIDE1,6:R3-13:R3$$$V2.0)
Escherichia coli ATCC 25922 MIC ([1]; ATCC 25922): 0.25 mg/L
Escherichia coli MCR-1 Af 45 MIC [2]: 0.0625 mg/L
Klebsiella pneumoniae SSI3010 MIC ([3]; SSI3010): 0.125 mg/L
Hemolysis at 0.2 g/L ([4]; red cells of human, 1 h): 0%

CC[C@H](C)[C@H](NC(=O)[C@@H]1C[C@@H](O)CN1C(=O)[C@@H](NC(=N)N)C(C)C)C(=O)N[C@H](C(=O)N[C@@H](Cc1ccc(O)cc1)C(=O)N[C@@H]1C(=O)N[C@@H](CC(N)=O)C(=O)N[C@@H](CCCNC(=N)N)C(=O)N[C@@H](CCN)C(=O)N[C@@H](CO)C(=O)N[C@H](CCN)C(=O)N[C@@H](CCCCN)C(=O)N[C@H](C(=O)N[C@@H](CCN)C(=O)N[C@@H](CCCNC(=N)N)C(=O)N[C@@H](Cc2ccc(O)cc2)C(=O)O)CSSC1(C)C)[C@@H](C)O [Example 196] (HELM PEPTIDE1{[CC(C)[C@H](NC(=N)N)C(=O)[*:2]].[Hyp].I.T.Y.[Pen].N.R.[Dab].S.[NCC[C@@H](N[*:1])C(=O)[*:2]].K.C.[Dab].R.Y}$PEPTIDE1,PEPTIDE1,6:R3-13:R3$$$V2.0)
Escherichia coli ATCC 25922 MIC ([1]; ATCC 25922): 0.125 mg/L
Escherichia coli MCR-1 Af 45 MIC [2]: 0.0625 mg/L
Klebsiella pneumoniae SSI3010 MIC ([3]; SSI3010): 0.125 mg/L
Hemolysis at 0.2 g/L ([4]; red cells of human, 1 h): 0%

CC[C@H](C)[C@H](NC(=O)[C@@H]1C[C@@H](O)CN1C(=O)[C@@H](NC(=N)N)C(C)C)C(=O)N[C@H](C(=O)N[C@@H](Cc1ccc(O)cc1)C(=O)N[C@@H]1C(=O)N[C@@H](CC(N)=O)C(=O)N[C@@H](CCCNC(=N)N)C(=O)N[C@@H](CCN)C(=O)N[C@@H](CO)C(=O)N[C@H](CCN)C(=O)N[C@@H](CCCCN)C(=O)N[C@H](C(=O)N[C@@H](CCN)C(=O)N[C@@H](CCN)C(=O)N[C@@H](Cc2ccc(O)cc2)C(=O)O)CSSC1(C)C)[C@@H](C)O [Example 197] (HELM PEPTIDE1{[CC(C)[C@H](NC(=N)N)C(=O)[*:2]].[Hyp].I.T.Y.[Pen].N.R.[Dab].S.[NCC[C@@H](N[*:1])C(=O)[*:2]].K.C.[Dab].[Dab].Y}$PEPTIDE1,PEPTIDE1,6:R3-13:R3$$$V2.0)
Escherichia coli ATCC 25922 MIC ([1]; ATCC 25922): 0.0625 mg/L
Escherichia coli MCR-1 Af 45 MIC [2]: 0.0625 mg/L
Klebsiella pneumoniae SSI3010 MIC ([3]; SSI3010): 0.125 mg/L
Hemolysis at 0.2 g/L ([4]; red cells of human, 1 h): 0%
